{"source": "paper PMC8308784", "about": "“Novel Purine Chemotypes with Activity against Plasmodium falciparum and Trypanosoma cruzi” (Pharmaceuticals, 2021)", "key": {"HepG2 cells": {"test_system": "HepG2 cells", "experiment": "HepG2 cell toxicity assay (alamarBlue)", "format": "cell-based, human", "settings": "2 days; minimum value of the 95% CI, except BNZ (mean (SD))", "experimental": "(§1) Human erythrocytes were purified from B+ Rh+ blood samples and maintained at 4 °C in incomplete RPMI medium. Vero (green monkey kidney epithelial cells), LLC-MK2 (Rhesus monkey kidney epithelial cells), and HepG2 (human liver epithelial cells) cultures were cultivated in DMEM supplemented with 1% penicillin–streptomycin (PS) and 10% heat-inactivated fetal bovine serum (FBS) at 37 °C, 5% CO2, and >95% humidity, as described in [31]. HepG2 cells were also supplemented with 10% non-essential amino acids. Vero and MK2 cells were passaged twice per week at 1:12 ratios, while HepG2 cells were passaged at a 1:8 ratio.\n(§2) Vero and HepG2 cells were detached, centrifuged, and resuspended in DMEM without phenol red. Cell viability was checked upon cell counting with trypan blue staining. Then, Vero and HepG2 cells were diluted at a concentration of 5 × 10^5 and 3.2 × 10^5 cells per mL, respectively, before adding 100 µL per well to the 96-well plate. Each run contained its own negative (untreated cells) and positive (medium alone) controls. Plates were incubated at 37 °C for 4 days in the case of Vero, or 2 in the case of HepG2 cells. Assay readout was made by adding 50 µL per well of a PBS solution containing 10% alamarBlue reagent (Thermo Fisher Scientific); then, plates were incubated for another 6 h at 37 °C, before recording the fluorescence intensity with a Tecan Infinite M Nano+ reader (excitation: 530 nm, emission: 590 nm).\n(§3) Absorbance values derived from the anti-T. cruzi assays and fluorescence values from the anti-P. falciparum and cell toxicity assays were normalized to the controls. In the primary screening at three fixed doses, the compounds’ inhibitory activity was expressed as a percentage of the negative control (100% parasitic growth). In dose–response assays, the compounds’ IC50 and TC50 values were determined with GraphPad Prism 7 software (version 7.00, 2016), using a non-linear regression analysis model defined by the following equation: Y=100 ÷(1+10^((LogIC50−X)×HillSlope))"}, "Vero cells": {"test_system": "Vero cells", "experiment": "Vero cell toxicity assay (alamarBlue)", "format": "cell-based, green monkey", "settings": "4 days; minimum value of the 95% CI, except BNZ (mean (SD))", "experimental": "as §1, §2, §3"}, "[1]": {"test_system": "T. cruzi Tulahuen strain expressing β-galactosidase", "experiment": "anti-T. cruzi dose-response growth inhibition assay (Vero cells plus trypomastigotes, CPRG readout)", "format": "cell-based", "settings": "Vero cells plus trypomastigotes, MOI 1, four days, mean (SD), read-out: T. cruzi IC50 a (anti-T. cruzi assay)", "experimental": "T. cruzi parasites from the Tulahuen strain (discrete typing unit (DTU) VI) expressing β-galactosidase were maintained in culture by the infection of LLC-MK2 cells in DMEM supplemented with 2% FBS and 1% penicillin–streptomycin–glutamine (PSG), as described in [52]. When free-swimming trypomastigotes were released to the culture medium, they were centrifuged for 7 min at 2500 rpm and allowed to swim out of the pellet. Trypomastigotes were used to maintain the parasite cycle, or for the performance of the antiparasitic assays.\nT. cruzi growth was primarily analyzed under three different concentrations ([…]) of the 81 compounds. Conditions were tested in triplicate for every concentration. Z-values varied between 0.81 and 0.92 in the different plates analyzed. Selected compounds (34.6% potential hit rate) were further analyzed via standard growth inhibition assays. The Z-values of dose–response assays correlated with those previously reported. For both assays, Vero cells and trypomastigotes from the Tulahuen T. cruzi strain expressing β-galactosidase were harvested, centrifuged, and resuspended in DMEM without phenol red supplemented with 1% PSG, 2% FBS, 1 mM sodium pyruvate, and 25 mM HEPES. Vero cells and trypomastigotes were counted, diluted at a concentration of 1 × 10^6 cells/mL each, and mixed 1:1 (v/v). Then, 100 μL of that mixture was added per well to the plates already containing the compounds. Each well contained 50,000 host cells and 50,000 parasites, i.e., multiplicity of infection (MOI) = 1. BNZ was used as control of maximal drug growth inhibition in each round, whereas each plate contained its own negative control (maximum parasite growth; Vero cells plus parasites without drugs) and positive control (minimum parasite growth; trypomastigote forms alone marking an enzymatic zero time or baseline galactosidase activity). After four days at 37 °C, 50 µL of a PBS solution containing 0.25% NP40 and 500 µM chlorophenol red-β-D-galactopyranoside (CPRG) substrate were added per well [32]. Plates were incubated at 37 °C for 4 h, and their absorbance read out at 590 nm using an Epoch Gene5 spectrophotometer.\nas §3"}, "[2]": {"test_system": "T. cruzi intracellular amastigotes", "experiment": "Antiamastigote growth inhibition assay", "format": "cell-based", "settings": "intracellular amastigotes in Vero cells, mean (SD), read-out: T. cruzi IC50 b (antiamastigote assay)", "experimental": "Vero cells were seeded in T-175 flasks (5 × 10^6 cells per flask) in DMEM supplemented with 1% penicillin–streptomycin and 10% FBS, and cultured for 24 h. Then, cells were washed once with PBS, and free-swimming trypomastigotes (1 × 10^7 trypomastigotes per flask; MOI = 1) in assay medium were added and allowed 18 h to infect. After that, infected cell monolayers were washed with PBS and detached. Cells were counted and diluted to a concentration of 5 × 10^5 cells per mL, before adding 100 µL per well to test plates already containing the drugs dispensed as described above. In all cases, we included BNZ as control drug, and each plate contained its own negative (Vero cells and parasites) and positive (Vero cells) controls.\nas §3"}, "P. falciparum 3D7": {"test_system": "P. falciparum 3D7", "experiment": "P. falciparum primary screening at three fixed concentrations", "format": "cell-based", "settings": "average of at least three experiments"}}, "note": "“And” between values parts separate entries of the source, which are not always exact repeats. Equal entries are not always repeated. Where two headings read alike, the source gives them in different places."}
{"smiles": "O=C(Cn1ccnc1[N+](=O)[O-])NCc1ccccc1", "note": "[BNZ, benznidazole, reference compound]", "values": [{"measurement": "HepG2 Cells TC50", "setting": "HepG2 cells", "value": "255.3 (10.8) µM and 255.3 µM"}, {"measurement": "Vero Cells TC50", "setting": "Vero cells", "value": "209.5 (15.0) µM and 209.5 µM"}, {"measurement": "IC50", "setting": "[1]; Trypanosoma cruzi, TULAHUEN, 96 h", "value": 1.72, "unit": "µM"}, {"measurement": "IC50", "setting": "[2]; Trypanosoma cruzi", "value": 1.82, "unit": "µM"}]}
{"smiles": "CN1CCN(n2cnc3c(OCc4ccccc4)ncnc32)CC1", "note": "[Compound 29]", "values": [{"measurement": "HepG2 Cells TC50", "setting": "HepG2 cells", "value": ">1000", "unit": "µM"}, {"measurement": "Vero Cells TC50", "setting": "Vero cells", "value": ">1000", "unit": "µM"}, {"measurement": "IC50", "setting": "[1]", "value": 4.86, "unit": "µM"}, {"measurement": "IC50", "setting": "[2]", "value": 157, "unit": "µM"}, {"measurement": "Primary screening, parasite growth relative to the negative control", "setting": "P. falciparum 3D7; compound at 1 µM", "value": 100.58, "unit": "%"}, {"measurement": "Primary screening, parasite growth relative to the negative control", "setting": "P. falciparum 3D7; compound at 10 µM", "value": 98.35, "unit": "%"}, {"measurement": "Primary screening, parasite growth relative to the negative control", "setting": "P. falciparum 3D7; compound at 100 µM", "value": 63.21, "unit": "%"}]}
